Series [1] can be described thus: Unbound fraction in human plasma (equilibrium dialysis). In kind it is in vitro ADME. The note with it: pH 7.4, equilibrium dialysis 6 h, 37 °C, read-out: Plasma protein binding (fraction unbound) human (pH7.4). The procedure:
(§1) An equilibrium dialysis apparatus was used to determine the unbound fraction for each compound in human or mouse plasma. High Throughput Dialysis Model HTD96b and Dialysis Membrane Strips MWCO 12–14 kDa (HTDialysis) were used. Plasma was spiked with the test compound (1 μM), and 150 μL aliquots were loaded into the apparatus and dialyzed versus 150 μL of 0.1 M phosphate buffer (pH 7.4) at 37 °C for 6 h by rotation at 80 rpm. The unbound fraction was calculated as the ratio of receiver side (buffer) to donor side (plasma) concentrations. Two technical replicates were performed.

A short description of another series: PAMPA assay. Format: in vitro ADME. The following applies: 37 °C, 4 h. How it is done: To determine the passive membrane diffusion rates, Corning Gentest Pre-coated PAMPA Plate System was used. The acceptor plate was prepared by adding 200 μL of 0.1 M phosphate buffer (pH 4.5–8.6) supplemented with 5% DMSO to each well, and then 300 μL of 30 μM compounds in 0.1 M phosphate buffer (pH 4.5–8.6) with 5% DMSO were added to the donor wells. The acceptor plate was then placed on top of the donor plate and incubated at 37 °C for 4 h without agitation. After the incubation, the plates were separated and the solutions from each well of both the acceptor plate and the donor plate were transferred to 96-well plates and mixed with acetonitrile. The final concentrations of compounds in both donor and acceptor wells, as well as the concentrations of the initial donor solutions, were analyzed using liquid chromatography-tandem mass spectrometry (LC-MS/MS). The permeability of the compounds was calculated as described in a previous study. […] Two technical replicates were performed.

Series [2] deals with MITOL and Tom20 mRNA in C2C12 cells. Description: qRT-PCR analysis of C2C12 cells. Format: cell-based, mouse. The note with it: C2C12, 5 μM or 10 μM. How it is done: (§2) Murine myoblast C2C12 cells were used for various cellular experiments in this study. Two different sources of C2C12 cells were used depending on the experiment: C2C12 cells obtained from RIKEN BRC (RCB0987) were used for gene expression, mtDNA quantification, and mitochondrial morphology analysis; C2C12 cells from ATCC (CRL-1772) were used for OCR analysis. Cells were cultured in Dulbecco’s Modified Eagle Medium (DMEM; Sigma-Aldrich or Nacalai Tesque), supplemented with 10% FBS and 1% penicillin–streptomycin. Cells were maintained in a humidified incubator at 37°C with 5% CO2.
For cellular experiments, berberine or quinoid-type berberrubine (Q-BRB) was dissolved in DMSO, and berberrubine acetic acid adduct (AcA-BRB) was dissolved in distilled H2O. Each compound was diluted in culture medium to the indicated final concentrations.
Total RNA was extracted from C2C12 cells using an RNA extraction kit (RNeasy Mini Kit, Qiagen). After washing with PBS, cells were collected by trypsinization and centrifugation at 500 × g for 5 min, and the pellet was lysed according to the manufacturer’s instructions. The extracted RNA was reverse-transcribed into cDNA using a reverse transcription kit (ReverTra Ace, TOYOBO). Quantitative real-time PCR was performed using a qPCR master mix (KAPA SYBR FAST qPCR Master Mix (2X) Kit, KAPABIOSYSTEMS) and a thermal cycler (StepOnePlus, Applied Biosystems). Gene expression levels were normalized to GAPDH. Primer sets used for qRT-PCR are listed in Supplementary Table 1.
For orientation: Quantitative PCR measures a nucleic acid by following its amplification.

The next series relates to C2C12 cells. Kind of series: Quantification of mitochondrial DNA (mtDNA/nDNA ratio). Format: cell-based, mouse. The following applies: C2C12, 10 μM. How it is done: as §2
To generate mMITOL-knockout C2C12 cells, CRISPR-Cas9 vectors were constructed. Single-guide RNAs (sgRNAs) targeting the mouse MITOL gene were designed using the online tool CRISPOR (http://crispor.org). The oligonucleotide pair corresponding to the mMITOL guide RNA (gRNA sequence, 5′-[…]-3′) was annealed and ligated into the PX459 vector (48139, Addgene). C2C12 cells were transfected using Lipofectamine 3000 (Thermo Fisher Scientific), and knockout clones were selected by serial dilution.
To assess mitochondrial DNA (mtDNA) content, the mtDNA/nuclear DNA (nDNA) ratio was determined by extracting DNA from C2C12 cells using the NucleoSpin Tissue Kit (Takara Bio), followed by real-time quantitative PCR analysis with specific primer sets for mtDNA (16S rRNA or ND1) and nDNA (Hexokinase 2; HK2) (Supplementary Table 2). Real-time quantitative PCR was performed using TB Green Premix Ex Taq II (Takara Bio) and a Thermal Cycler Dice Real-Time System (Takara Bio). The analysis of mtDNA/nDNA ratios was conducted using the ΔΔCt method as previously described.

Series [3] in a line: Repeated oral administration: plasma concentration and tissue distribution. In kind it is in vivo, mouse. The following applies: mice, 7 days. The procedure:
In the repeated administration study, animals were treated according to the group allocations as described in the main text and corresponding to Supplementary Figure 2d. Compounds were administered orally either via drinking water or mixed feed for 7 or 28 days, and plasma, brain, heart, and skeletal muscle samples were collected at the final time point (8:00–10:00 a.m.) on the day of sacrifice (n = 4 per group). Blood was drawn from the abdominal vena cava under terminal anesthesia and plasma was separated by centrifugation using heparinized tubes. Tissue samples were homogenized with four volumes of phosphate-buffered saline. Plasma and tissue homogenate samples were precipitated with acetonitrile containing an internal standard (IS) at a volume fourfold or greater than that of the sample, and then centrifuged at 15,000 × g for 10 min at 4 °C. The resulting supernatants were analyzed by LC-MS/MS.
An LCMS-8060 instrument equipped with a Shimadzu Nexera series LC system (Shimadzu) was used. Berberrubine and IS were analyzed in multiple reaction monitoring mode under electronspray ionization conditions. The analytical column used was a CAPCELL PAK C18 MGIII (3 μm × 2.0 mm ID × 35 mm; OSAKA SODA) at 50 °C. The gradient mobile phase consisted of 0.1% formic acid in water (mobile phase A) and 0.1% formic acid in acetonitrile (mobile phase B) at a total flow rate of 1 mL/min. The initial mobile phase composition was 10% B, which was held constant for 0.5 min, increased in a linear fashion to 90% B over 1 min, then held constant for 0.8 min, and finally brought back to the initial condition of 10% B over 0.01 min and reequilibrated for 1 min. The transitions (precursor ion > product ion) of berberrubine and IS (methyl testosterone) are 322.11 > 307.1 and 303.1 > 109.1 (positive), respectively.

Series [4] is described as follows: Unbound fraction in mouse plasma (equilibrium dialysis). In kind it is in vitro ADME. The note with it: pH 7.4, equilibrium dialysis 6 h, 37 °C, read-out: Plasma protein binding (fraction unbound) mouse (pH7.4). The procedure: as §1
Setting [5] is: donor/acceptor pH 6.4/7.4, 30 μM, read-out: Membrane permeability pH6.4/7.4.
The mark [6] stands for this setting: donor/acceptor pH 7.4/7.4, 30 μM, read-out: Membrane permeability pH7.4/7.4.
Where [7] appears, read: 2 mg/mL AcA-BRB in drinking water.

As a reminder, the fraction unbound is the share of the substance not bound to proteins or other matrix.

Where two headings read alike, the source gives them in different places.

In the case of `COc1ccc2cc3[n+](cc2c1O)CCc1cc2c(cc1-3)OCO2` [AcA-BRB, berberrubine acetic acid adduct], the results for the free fraction (fraction unbound) at 6 h, 1 μM in series [1] and in series [4] were 0.374 and 0.203, respectively. Also, the Papp at 4 h, 30 μM was found to be 0.22 ×10⁻⁶ cm/s in “PAMPA assay” (donor/acceptor pH 4.5/4.5, 30 μM, read-out: Membrane permeability pH4.5/4.5); 1.87 ×10⁻⁶ cm/s in the series “PAMPA assay” (setting [5]); 1.8 ×10⁻⁶ cm/s in the series “PAMPA assay” (setting [6]). The “mRNA levels of MITOL and Tom20” value in series [2] is “increased”. Also, the “mitochondrial abundance (mtDNA 16S rRNA or ND1 / nuclear HK2)” value in the series with C2C12 cells is “significantly increased”. The “plasma berberrubine concentration compared to all other groups” value in series [3] (2 mg/mL in drinking water) is “significantly higher”.
As for `COc1ccc2cc3n(cc-2c1=O)CCc1cc2c(cc1-3)OCO2` [Q-BRB, quinoid-type berberrubine], the fraction unbound at 6 h, 1 μM in series [1] was 0.359; in series [4], 0.162. The Papp at 4 h, 30 μM was 1.63 ×10⁻⁶ cm/s in “PAMPA assay” (setting [5]); 2.9 ×10⁻⁶ cm/s in the series “PAMPA assay” (setting [6]); 2.6 ×10⁻⁶ cm/s in the series “PAMPA assay” (donor/acceptor pH 8.6/8.6, 30 μM, read-out: Membrane permeability pH8.6/8.6). Also, the “mRNA levels of MITOL and Tom20” value in series [2] is given as “increased”. The “mitochondrial abundance (mtDNA 16S rRNA or ND1 / nuclear HK2)” value with C2C12 cells is given as “significantly increased”.
For the molecule `COc1ccc2cc3[n+](cc2c1O)CCc1cc2c(cc1-3)OCO2` [berberrubine], in series [3] (setting [7]), the “berberrubine concentration in the heart compared to other tissues” value was “tendency toward higher concentrations” and the “berberrubine level in the brain” value is listed as “exceptionally low”.

(Values after PMC13091788 (NPJ Aging, 2026).)
